Laboratory results taken from patent publication US20210330611A1, “THERAPY FOR NEUROLOGICAL DISEASES/DISORDERS” (priority 2020, published 2021).
Counter-ions that a name gives are not always drawn. Like-named read-outs stand apart in the source and are kept apart here.

Tests used:
[1] = system: fibrin-induced microglia activation; experiment: Image-based assay of fibrin-induced microglia activation (HTS and dose response); assay type: cell-based, rat; conditions: for inhibition at 10 µM / IC50: Rattus norvegicus, Microglia; for inhibition at 10 µM: read-out: Fibrin % inhibition; for IC50: Table 7, read-out: fib_IC50
[2] = system: LPS-induced microglia activation; experiment: Image-based assay of LPS-induced microglia activation (HTS and dose response); assay type: cell-based, rat; conditions: for inhibition at 10 µM / IC50: Rattus norvegicus, Microglia; for inhibition at 10 µM: read-out: LPS % inhibition; for IC50: Table 7, read-out: LPS_IC50
[3] = system: fibrin- and LPS-induced microglia activation; experiment: cells; assay type: cell-based, rat; conditions: for Activity: Table 7, fib = fibrin, LPS, tox = toxicity
[4] = system: primary rat microglia; experiment: Cell toxicity (dead cells, size <150 μm2) in LPS assay
[5] = system: primary rat microglia; experiment: Cell toxicity (dead cells, size <150 μm2) in coated fibrin (cFib) assay;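 further: share of dead cells sized under 150 µm2 at 10 µM in fibrin-stimulated microglia HTS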
[6] = primary HTS, 10 μM, fibrin-stimulated primary microglia
[7] = primary HTS, 10 μM, LPS-stimulated primary microglia
[8] = primary HTS, 10 μM, LPS assay, dead cells size <150 μm2
[9] = primary HTS, 10 μM, fibrin assay, dead cells size <150 μm2
[10] = primary microglia HTS, fibrin stimulation, increased cell size (>800 μm^2) as marker of activation
[11] = primary microglia HTS, LPS stimulation, increased cell size (>800 μm^2) as marker of activation
[12] = quadrant by fibrin and LPS inhibition in HTS of 1907 compounds
[13] = primary microglia HTS, LPS stimulation, decreased size (<150 μm^2) as marker of toxicity
[14] = primary microglia HTS, fibrin stimulation, decreased size (<150 μm^2) as marker of toxicity
[15] = 48 h, primary microglia HTS, LPS stimulation, increased cell size (>800 μm^2) as marker of activation
[16] = primary microglia HTS, 10 μM, fibrin-stimulated, cell size >800 μm^2 as marker of activation
[17] = primary microglia HTS, 10 μM, LPS-stimulated, cell size >800 μm^2 as marker of activation
[18] = HTS of 1907 compounds, quadrant by fibrin and LPS inhibition
[19] = primary microglia HTS, 10 μM, LPS assay, cell size <150 μm^2 as marker of toxicity
[20] = primary microglia HTS, 10 μM, fibrin assay, cell size <150 μm^2 as marker of toxicity
[21] = primary microglia HTS, fibrin stimulation, activation = cell size >800 μm2
[22] = 48 h, primary microglia HTS, LPS stimulation, activation = cell size >800 μm2
[23] = primary microglia HTS, LPS stimulation, toxicity = cell size <150 μm2
[24] = primary microglia HTS, fibrin stimulation, toxicity = cell size <150 μm2

C[N+](C)(C)CCOC(N)=O [Carbachol]
inhibition at 10 µM [1, 6]: -18%
inhibition at 10 µM [2, 7]: 6%
Quadrant (FIG. 5b) ([3]; primary HTS, 10 μM): Q4
LPS % cell toxicity [4, 8]: 0%
Fibrin % cell toxicity [5, 9]: 1%

CC1(C)S[C@@H]2[C@H](NC(=O)Cc3ccccc3)C(=O)N2[C@H]1C(=O)O [Benzylpenicillin]
inhibition at 10 µM [1, 6]: 29%
inhibition at 10 µM [2, 7]: 42%
Quadrant (FIG. 5b) ([3]; primary HTS, 10 μM): Q4
LPS % cell toxicity [4, 8]: 0%
Fibrin % cell toxicity [5, 9]: 1%

S=C=Nc1ccc(N=C=S)cc1 [Bitoscanate]
inhibition at 10 µM [1, 6]: -9%
inhibition at 10 µM [2, 7]: 3%
Quadrant (FIG. 5b) ([3]; primary HTS, 10 μM): Q4
LPS % cell toxicity [4, 8]: 1%
Fibrin % cell toxicity [5, 9]: 1%

NS(=O)(=O)c1cc2c(cc1Cl)N=CNS2(=O)=O [Chlorothiazide]
inhibition at 10 µM [1, 6]: 20%
inhibition at 10 µM [2, 7]: 3%
Quadrant (FIG. 5b) ([3]; primary HTS, 10 μM): Q4
LPS % cell toxicity [4, 8]: 0%
Fibrin % cell toxicity [5, 9]: 0%

Oc1c(Br)cc(Br)c2cccnc12 [Broxyquinoline]
inhibition at 10 µM [1, 6]: -25%
inhibition at 10 µM [2, 7]: 8%
Quadrant (FIG. 5b) ([3]; primary HTS, 10 μM): Q4
LPS % cell toxicity [4, 8]: 0%
Fibrin % cell toxicity [5, 9]: 0%

[O-][n+]1cccc(CO)c1 [Mepiroxol]
Fibrin % inhibition [1, 10]: −6%
LPS % inhibition [2, 11]: 11%
Quadrant (FIG. 5b) [3, 12]: Q4
LPS % cell toxicity [4, 13]: 0%
Fibrin % cell toxicity [5, 14]: 1%

CN(C)[C@@H]1C(O)=C(C(N)=O)C(=O)[C@@]2(O)C(O)=C3C(=O)c4c(O)ccc(Cl)c4[C@@](C)(O)[C@H]3C[C@@H]12 [Chlortetracycline]
inhibition at 10 µM [1, 6]: -15%
inhibition at 10 µM [2, 7]: -6%
Quadrant (FIG. 5b) ([3]; primary HTS, 10 μM): Q4
LPS % cell toxicity [4, 8]: 0%
Fibrin % cell toxicity [5, 9]: 1%

O=S(=O)(O)CCS [Mesna]
inhibition at 10 µM [1, 10]: 18%
inhibition at 10 µM [2, 15]: 5%
Quadrant (FIG. 5b) [3, 12]: Q4
LPS % cell toxicity [4, 13]: 0%
Fibrin % cell toxicity [5, 14]: 1%

COc1c2ccoc2cc2oc(=O)ccc12 [Bergapten]
inhibition at 10 µM [1, 6]: -5%
inhibition at 10 µM [2, 7]: 22%
Quadrant (FIG. 5b) ([3]; primary HTS, 10 μM): Q4
LPS % cell toxicity [4, 8]: 0%
Fibrin % cell toxicity [5, 9]: 1%

CC(=O)OCC(=O)[C@@]1(O)CC[C@H]2[C@@H]3CCC4=CC(=O)CC[C@]4(C)[C@H]3[C@@H](O)C[C@@]21C [Hydrocortisone acetate, reference compound]
IC50 [1]: 10 nM
inhibition at 10 µM [1, 10]: 112%
inhibition at 10 µM [2, 15]: 89%
IC50 [2]: 17 nM
Quadrant (FIG. 5b) ([3]; Table 2, screen at 10 μM): Q2
Activity [3]: fib/LPS
Quadrant (FIG. 5b) [3, 12]: Q2
LPS % cell toxicity [4, 13]: 4%
Fibrin % cell toxicity [5, 14]: 4%

CC[C@]12CCCN3CCc4c(n(c5ccccc45)[C@@](O)(C(=O)OC)C1)[C@@H]32 [Vincamine]
inhibition at 10 µM [1, 16]: 1%
inhibition at 10 µM [2, 17]: 20%
Quadrant (FIG. 5b) [3, 18]: Q4
LPS % cell toxicity [4, 19]: 0%
Fibrin % cell toxicity [5, 20]: 0%

O=C(O)[C@@H](S)[C@@H](S)C(=O)O [Succimer]
inhibition at 10 µM [1, 16]: -37%
inhibition at 10 µM [2, 17]: -5%
Quadrant (FIG. 5b) [3, 18]: Q4
LPS % cell toxicity [4, 19]: 0%
Fibrin % cell toxicity [5, 20]: 0%

CN(Cc1ccc(C(C)(C)C)cc1)Cc1cccc2ccccc12 [Butenafine]
inhibition at 10 µM [1, 6]: -4%
inhibition at 10 µM [2, 7]: -8%
Quadrant (FIG. 5b) ([3]; primary HTS, 10 μM): Q4
LPS % cell toxicity [4, 8]: 0%
Fibrin % cell toxicity [5, 9]: 1%

CC(C)CCCC(C)NC(C)C (stereo not drawn) [Iproheptine]
inhibition at 10 µM [1, 21]: -34%
inhibition at 10 µM [2, 22]: 11%
Quadrant (FIG. 5b) [3, 12]: Q4
LPS % cell toxicity [4, 23]: 0%
Fibrin % cell toxicity [5, 24]: 1%

C[C@H](CCC(=O)O)[C@H]1CC[C@H]2[C@@H]3[C@H](O)C[C@@H]4C[C@H](O)CC[C@]4(C)[C@H]3CC[C@]12C [Chenodiol]
inhibition at 10 µM [1, 6]: -32%
inhibition at 10 µM [2, 7]: 4%
Quadrant (FIG. 5b) ([3]; primary HTS, 10 μM): Q4
LPS % cell toxicity [4, 8]: 0%
Fibrin % cell toxicity [5, 9]: 0%

COc1cc(CNC(=O)CCCC/C=C/C(C)C)ccc1O [Capsaicin]
inhibition at 10 µM [1, 6]: -45%
inhibition at 10 µM [2, 7]: 9%
Quadrant (FIG. 5b) ([3]; primary HTS, 10 μM): Q4
LPS % cell toxicity [4, 8]: 0%
Fibrin % cell toxicity [5, 9]: 1%

CNS(=O)(=O)Cc1ccc2[nH]cc(CCN(C)C)c2c1 [Sumatriptan]
inhibition at 10 µM [1, 16]: -7%
inhibition at 10 µM [2, 17]: 8%
Quadrant (FIG. 5b) [3, 18]: Q4
LPS % cell toxicity [4, 19]: 0%
Fibrin % cell toxicity [5, 20]: 1%

CN(C)CCOC(c1ccc(Cl)cc1)c1ccccn1 (stereo not drawn) [Carbinoxamine]
inhibition at 10 µM [1, 6]: 6%
inhibition at 10 µM [2, 7]: -3%
Quadrant (FIG. 5b) ([3]; primary HTS, 10 μM): Q4
LPS % cell toxicity [4, 8]: 0%
Fibrin % cell toxicity [5, 9]: 0%

CCN(CCO)CCCC(C)Nc1ccnc2cc(Cl)ccc12 (stereo not drawn) [Hydroxychloroquine]
inhibition at 10 µM [1, 21]: 35%
inhibition at 10 µM [2, 22]: 17%
Quadrant (FIG. 5b) [3, 12]: Q4
LPS % cell toxicity [4, 23]: 0%
Fibrin % cell toxicity [5, 24]: 1%

COc1ccccc1N1CCN(CCCNc2cc(=O)n(C)c(=O)n2C)CC1 [Urapidil Hydrochloride]
inhibition at 10 µM [1, 16]: -6%
inhibition at 10 µM [2, 17]: 20%
Quadrant (FIG. 5b) [3, 18]: Q4
LPS % cell toxicity [4, 19]: 0%
Fibrin % cell toxicity [5, 20]: 1%

NCc1ccccc1CC(=O)N[C@@H]1C(=O)N2C(C(=O)O)=C(CSc3nnnn3CC(=O)O)CS[C@H]12 [Ceforanide]
inhibition at 10 µM [1, 6]: -2%
inhibition at 10 µM [2, 7]: 14%
Quadrant (FIG. 5b) ([3]; primary HTS, 10 μM): Q4
LPS % cell toxicity [4, 8]: 1%
Fibrin % cell toxicity [5, 9]: 1%

Cc1cc(CC(=O)O)n(C)c1C(=O)c1ccc(Cl)cc1 [Zomepirac]
inhibition at 10 µM [1, 16]: -4%
inhibition at 10 µM [2, 17]: 10%
Quadrant (FIG. 5b) [3, 18]: Q4
LPS % cell toxicity [4, 19]: 0%
Fibrin % cell toxicity [5, 20]: 1%

C[C@](N)(Cc1ccc(O)c(O)c1)C(=O)O [L-alpha-methyl Dopa, Methyldopa]
Fibrin % inhibition [1, 21]: 4%
LPS % inhibition ([2]; primary microglia HTS, LPS stimulation, activation = cell size >800 μm2): 15%
Quadrant (FIG. 5b) [3, 12]: Q4
LPS % cell toxicity [4, 23]: 0%
Fibrin % cell toxicity [5, 24]: 0%

Polymyxin B Sulfate
Fibrin % inhibition [1, 10]: −25%
LPS % inhibition [2, 11]: 76%
Quadrant (FIG. 5b) [3, 12]: Q1
LPS % cell toxicity [4, 13]: 2%
Fibrin % cell toxicity [5, 14]: 1%

O=C(O)c1cc(O)c(O)c(O)c1 [Gallic Acid]
inhibition at 10 µM [1, 21]: -32%
inhibition at 10 µM [2, 22]: 10%
Quadrant (FIG. 5b) [3, 12]: Q4
LPS % cell toxicity [4, 23]: 0%
Fibrin % cell toxicity [5, 24]: 0%

CC(NCCC(c1ccccc1)c1ccccc1)c1ccccc1 (stereo not drawn) [Fendiline hydrochloride, reference compound]
IC50 [1]: 1750 nM
inhibition at 10 µM [1, 10]: -33%
inhibition at 10 µM [2, 15]: 10%
IC50 [2]: 900 nM
Quadrant (FIG. 5b) ([3]; Table 2, screen at 10 μM): Q4
Activity [3]: fib/LPS
Quadrant (FIG. 5b) [3, 12]: Q4
LPS % cell toxicity [4, 13]: 0%
Fibrin % cell toxicity [5, 14]: 1%

CC(C)CCCC(C)N (stereo not drawn) [Octodrine]
inhibition at 10 µM [1, 10]: 2%
inhibition at 10 µM [2, 15]: -2%
Quadrant (FIG. 5b) [3, 12]: Q4
LPS % cell toxicity [4, 13]: 0%
Fibrin % cell toxicity [5, 14]: 0%

Oc1cc(Cl)ccc1Oc1ccc(Cl)cc1Cl [Triclosan]
inhibition at 10 µM [1, 16]: -6%
inhibition at 10 µM [2, 17]: 16%
Quadrant (FIG. 5b) [3, 18]: Q4
LPS % cell toxicity [4, 19]: 1%
Fibrin % cell toxicity [5, 20]: 1%

CC(=O)OCC(=O)[C@@]1(O)[C@@H](C)C[C@H]2[C@@H]3CCC4=CC(=O)C=C[C@]4(C)[C@@]3(F)[C@@H](O)C[C@@]21C [Betamethasone Acetate]
inhibition at 10 µM [1, 10]: 107%
inhibition at 10 µM [2, 15]: 100%
Quadrant (FIG. 5b) [3, 12]: Q2
LPS % cell toxicity [4, 13]: 4%
Fibrin % cell toxicity [5, 14]: 3%
